Source: patent US20020150990A1, “Hepatitis C virus peptides” (priority 1992, published 2002)
Ends that are not written are not given here.

Tested on: antibodies against HCV
Assay: PEPSCAN analysis of overlapping octameric peptides of the HCV core protein N-terminal region with HCV-seropositive sera
Type: binding, human
Conditions: read at 405 nm
Text: The N-terminal 97 amino acid residues of HCV Core protein SEQ ID NO: 8 was mapped with PEPSCAN analysis. This process involved the serological analysis of sequentially overlapping peptides which spanned the region of interest, to identify epitopic domains. Ninety overlapping octameric peptides were synthesized on polypropylene pin supports according to the manufacturer's instructions (Cambridge Research Biochemicals), such that each peptide overlapped with the preceding sequence by the seven N-terminal residues, and with the subsequent peptide by the seven C-terminal residues. Serum or IgG purified from the serum of individuals confirmed to be seropositive for HCV were used to screen the peptides.
The assay procedure followed was performed basically as described in the manufacturers instruction manual. The time and temperature of the test antibody incubation differed from that prescribed, thereby decreasing the time taken for each assay.
Sera: A total of 16 sera were assayed by PEPSCAN. These consisted of 12 sera from paid U.S. Donors which were identified as being positive for antibodies against HCV in routine screening at the site of donation. The remaining four sera were from patients diagnosed as having non-A non-B hepatitis, and which were subsequently shown to contain antibodies to HCV. Sera were screened either as the crude serum fraction, or as a caprylic acid preparation. Caprylic acid purification of IgG from the sera was performed as described by Stienbuch and Audran (1969) Arch. Biochem. Biophys. 134, 279-284.
Assay: The assay format involves sequentially incubating the various pins in microwell plates containing blocking, test antibody, conjugate, and substrate solutions. The immune complex builds up on the pin with the enzyme labelled conjugate being immobilized on the bound anti-peptide antibody from the test serum. When the pin is then immersed in substrate, the enzyme brings about the colour change which is used to quantify the amount of anti-peptide antibody bound.
Blocking: Pins are immersed in 200 μl of Supercocktail (1% Ovalbumin, 1% bovine serum albumin in 0.15M phosphate buffered saline pH 7.2—0.1% Tween 20) and left to stand at room temperature for 1 hour.
Test antibody: The test antibody is diluted between 1/200 (IgG) and 1/1000 (serum) in supercocktail. The pins are then stood in this solution (175 μl/well) at 37° C. for 1 hour. After this incubation the pins are washed four times in 0.15M phosphate buffered saline pH 7.2—0.05% Tween 20, each at room temperature for 10 minutes.
Conjugate: Rabbit anti-human IgG coupled to horseradish peroxidase is diluted 1/1000 in supercocktail. The peptide bearing pins are then stood in this solution at room temperature for 1 hour. Once again the pins are then washed four times as above.
Substrate: The substrate solution is made up fresh for each assay. To 100 ml of 0.1M phosphate, 0.08M citrate buffer pH 4.0 is dissolved 50 mg of 2,2′-AZINO-bis (3-ethylbenzthiazo-linsulphonic acid (ABTS) and 0.3 μl/ml 30% hydrogen peroxide is added. The pins are immersed in the wells containing substrate solution (150 μl/well) and incubated at room temperature in the dark. Once sufficient colour has developed the reaction is stopped by removing the pins. The plates are then read immediately in a spectrophotometric plate reader at a wavelength of 405 nm. The absorbance values are then plotted against pin number. The epitopic domains are then defined as the continuous sequence of amino acids common to all positive pins in the domain i.e.

Sequence	Absorbance Units for different sera (serum 65221) [Absorbance Units]	Absorbance Units for different sera (serum 65234) [Absorbance Units]	Absorbance Units for different sera (serum 65241) [Absorbance Units]	Absorbance Units for different sera (serum 65276) [Absorbance Units]	Absorbance Units for different sera (serum L) [Absorbance Units]
GGGQIVGG (pin support) [overlapping octameric peptide of HCV core protein on pin support]	137	134	121	127	121
VGGVYLLP (pin support) [overlapping octameric peptide of HCV core protein on pin support]	83	235	144	132	169
GPRLGVRA (pin support) [overlapping octameric peptide of HCV core protein on pin support]	111	75	60	146	101
QIVGGVYL (pin support) [overlapping octameric peptide of HCV core protein on pin support]	329	152	125	165	161
RGPRLGVR (pin support) [overlapping octameric peptide of HCV core protein on pin support]	168	99	94	167	132
LPRRGPRL (pin support) [overlapping octameric peptide of HCV core protein on pin support]	97	145	94	139	148
GVYLLPRR (also: pin support) [Gly-Val-Tyr-Leu-Leu-Pro-Arg-Arg, overlapping octameric peptide of HCV core protein on pin support]	613	229	511	350	378
GGVYLLPR (pin support) [overlapping octameric peptide of HCV core protein on pin support]	132	344	311	246	191
PRRGPPLG [overlapping octameric peptide of HCV core protein on pin support]	85	109	73	129	110
IVGGVYLL (pin support) [overlapping octameric peptide of HCV core protein on pin support]	268	186	126	183	158
RRGPRLGV (pin support) [overlapping octameric peptide of HCV core protein on pin support]	145	146	85	150	123
YLLPRRGP (pin support) [Tyr-Leu-Leu-Pro-Arg-Arg-Gly-Pro, overlapping octameric peptide of HCV core protein on pin support]	332	177	367	248	242
PRLGVRAT (pin support) [overlapping octameric peptide of HCV core protein on pin support]	166	88	79	155	115
GQIVGGVY (pin support) [overlapping octameric peptide of HCV core protein on pin support]	216	165	112	128	138
LLPRRGPR (pin support) [overlapping octameric peptide of HCV core protein on pin support]	142	101	129	98	133
RLGVRATR (pin support) [overlapping octameric peptide of HCV core protein on pin support]	81	100	180	177	124
GGQIVGGV (pin support) [overlapping octameric peptide of HCV core protein on pin support]	323	179	122	119	119
